# Reference: article PMC6008299, “Impact of race on dose selection of molecular-targeted agents in early-phase oncology trials” (British Journal of Cancer, 2018)
# Entries after “also recorded” stand apart in the source; their conditions may differ.
# Tests used:
# [1] = tested on: patients with advanced, refractory solid tumours; experiment: Phase I dose-escalation study U101 (US): safety, DLT, MTD; format: in vivo
# Excerpt: Studies were approved by the Institutional Review Board at the participating institutions and regulatory authorities. Written informed consent in English and Japanese was obtained from all patients prior to enrollment.
# Secondary and exploratory objectives were to evaluate PK, tumour response, and PD effects. Treatment-emergent adverse events (TEAE) were graded using the Common Terminology Criteria for Adverse Events version 4.0. A dose-limiting toxicity (DLT) was defined as a grade ≥3 clinically significant toxicity, with the exceptions of grade ≥4 anaemia and prolonged grade 3 neutropenia. Both studies were open-label, phase I dose-escalation studies. In Japan, the study was conducted at a single centre, while the US study was conducted at three sites. […] In the US, an accelerated titration design was used at low doses followed by a mCRM with EWOC. Briefly, the dose was escalated based on safety data in a single patient until a grade 2 or higher toxicity was observed during cycle 1 or the DLT period (days 1–28). […] Prophylactic granulocyte colony-stimulating factor and antiemetics were not permitted during cycle 1.
# glucose = experiment: Pharmacodynamics: glucose after dosing; format: in vivo, human; conditions: decreased toward baseline at 24 h
# Description: In both studies, the PK profile of DS-7423 was characterised during cycle 1 on days 1 and 8. For PD analysis, glucose, C-peptide, and Akt phosphorylation were measured in platelet-rich plasma collected at predose, 1, 2, 4, 6, and 24 h after dosing on days 1 and 15. Tumour assessment was performed every two cycles using Response Evaluation Criteria in Solid Tumours (RECIST) version 1.1 in both studies. 18F-Fluoro-2-deoxy-D-glucose positron emission tomography ([18F]-FDG) was performed as an exploratory endpoint at baseline and on day 4.[10]
smiles,measurement,setting,value
CC(=O)N1CCN(c2nc3c(N4CCOCC4)nc(-c4cnc(N)nc4)nc3n2CC(F)(F)F)C[C@H]1C [DS-7423],"AST increased (TEAE), n patients",[1]; 160 mg US cohort (n = 4),0
same,"Abdominal pain (TEAE), n patients",[1]; 160 mg US cohort (n = 4),1
same,"Back pain (TEAE), n patients",[1]; 160 mg US cohort (n = 4),0
same,"Blood creatinine increased (TEAE), n patients",[1]; 160 mg US cohort (n = 4),2
same,"Constipation (TEAE), n patients",[1]; 160 mg US cohort (n = 4),2
same,"Cough (TEAE), n patients",[1]; 160 mg US cohort (n = 4),0
same,"Decreased appetite (TEAE), n patients",[1]; 160 mg US cohort (n = 4),3
same,"Dehydration (TEAE), n patients",[1]; 160 mg US cohort (n = 4),1
same,"Diarrhoea (TEAE), n patients",[1]; 160 mg US cohort (n = 4),4
same,"Dry mouth (TEAE), n patients",[1]; 160 mg US cohort (n = 4),0
same,"Dysgeusia (TEAE), n patients",[1]; 160 mg US cohort (n = 4),1
same,"Dyspnea (TEAE), n patients",[1]; 160 mg US cohort (n = 4),0
same,"Edema (TEAE), n patients",[1]; 160 mg US cohort (n = 4),0
same,"Fatigue (TEAE), n patients",[1]; 160 mg US cohort (n = 4),4
same,"Hyperglycaemia (TEAE), n patients",[1]; 160 mg US cohort (n = 4),1
same,"Lung infection/ pneumonia (TEAE), n patients",[1]; 160 mg US cohort (n = 4),0
same,"Nausea (TEAE), n patients",[1]; 160 mg US cohort (n = 4),2
same,"Pyrexia (TEAE), n patients",[1]; 160 mg US cohort (n = 4),0
same,"Rash (TEAE), n patients",[1]; 160 mg US cohort (n = 4),0
same,"Stomatitis (TEAE), n patients",[1]; 160 mg US cohort (n = 4),1
same,"Vomiting (TEAE), n patients",[1]; 160 mg US cohort (n = 4),2
same,"Abdominal pain (TEAE), n patients",[1]; 240 mg US cohort (n = 9),4
same,"Back pain (TEAE), n patients",[1]; 240 mg US cohort (n = 9),3
same,"Blood creatinine increased (TEAE), n patients",[1]; 240 mg US cohort (n = 9),2
same,"Constipation (TEAE), n patients",[1]; 240 mg US cohort (n = 9),1
same,"Cough (TEAE), n patients",[1]; 240 mg US cohort (n = 9),0
same,"Decreased appetite (TEAE), n patients",[1]; 240 mg US cohort (n = 9),5
same,"Decreased appetite ≥G3, n patients",[1]; 240 mg US cohort (n = 9),1
same,"Dehydration (TEAE), n patients",[1]; 240 mg US cohort (n = 9),1
same,"Diarrhoea (TEAE), n patients",[1]; 240 mg US cohort (n = 9),5
same,"Dry mouth (TEAE), n patients",[1]; 240 mg US cohort (n = 9),3
same,"Dysgeusia (TEAE), n patients",[1]; 240 mg US cohort (n = 9),2
same,"Dyspnea (TEAE), n patients",[1]; 240 mg US cohort (n = 9),3
same,"Edema (TEAE), n patients",[1]; 240 mg US cohort (n = 9),1
same,"Fatigue (TEAE), n patients",[1]; 240 mg US cohort (n = 9),5
same,"Fatigue ≥G3, n patients",[1]; 240 mg US cohort (n = 9),1
same,"Hyperglycaemia (TEAE), n patients",[1]; 240 mg US cohort (n = 9),2
same,"Lung infection/ pneumonia (TEAE), n patients",[1]; 240 mg US cohort (n = 9),1
same,"Nausea (TEAE), n patients",[1]; 240 mg US cohort (n = 9),4
same,"Pyrexia (TEAE), n patients",[1]; 240 mg US cohort (n = 9),2
same,"Rash (TEAE), n patients",[1]; 240 mg US cohort (n = 9),0
same,"Stomatitis (TEAE), n patients",[1]; 240 mg US cohort (n = 9),5
same,"Stomatitis G3, n patients",[1]; 240 mg US cohort (n = 9),1
same,"Vomiting (TEAE), n patients",[1]; 240 mg US cohort (n = 9),3
same,"AST increased (TEAE), n patients","[1]; 240 mg US cohort (n = 9), cell marks ≥G3","2, ≥G3"
same,"AST increased (TEAE), n patients",[1]; 320 mg US cohort (n = 8),0
same,"Abdominal pain (TEAE), n patients",[1]; 320 mg US cohort (n = 8),0
same,"Back pain (TEAE), n patients",[1]; 320 mg US cohort (n = 8),0
same,"Blood creatinine increased (TEAE), n patients",[1]; 320 mg US cohort (n = 8),2
same,"Constipation (TEAE), n patients",[1]; 320 mg US cohort (n = 8),1
same,"Cough (TEAE), n patients",[1]; 320 mg US cohort (n = 8),1
same,"Decreased appetite (TEAE), n patients",[1]; 320 mg US cohort (n = 8),5
same,"Dehydration (TEAE), n patients",[1]; 320 mg US cohort (n = 8),3
same,"Dehydration G3, n patients",[1]; 320 mg US cohort (n = 8),1
same,"Diarrhoea (TEAE), n patients",[1]; 320 mg US cohort (n = 8),4
same,"Dry mouth (TEAE), n patients",[1]; 320 mg US cohort (n = 8),2
same,"Dysgeusia (TEAE), n patients",[1]; 320 mg US cohort (n = 8),5
same,"Dyspnea (TEAE), n patients",[1]; 320 mg US cohort (n = 8),2
same,"Edema (TEAE), n patients",[1]; 320 mg US cohort (n = 8),1
same,"Fatigue (TEAE), n patients",[1]; 320 mg US cohort (n = 8),6
same,"Fatigue G3, n patients",[1]; 320 mg US cohort (n = 8),1
same,"Hyperglycaemia (TEAE), n patients",[1]; 320 mg US cohort (n = 8),3
same,"Nausea (TEAE), n patients",[1]; 320 mg US cohort (n = 8),5
same,"Pyrexia (TEAE), n patients",[1]; 320 mg US cohort (n = 8),2
same,"Rash (TEAE), n patients",[1]; 320 mg US cohort (n = 8),3
same,"Stomatitis (TEAE), n patients",[1]; 320 mg US cohort (n = 8),1
same,"Vomiting (TEAE), n patients",[1]; 320 mg US cohort (n = 8),4
same,"Lung infection/ pneumonia (TEAE), n patients","[1]; 320 mg US cohort (n = 8), cell marks G3","1, G3"
same,"AST increased (TEAE), n patients",[1]; 2–28 mg US cohort (n = 10),3
same,"AST increased ≥G3, n patients",[1]; 2–28 mg US cohort (n = 10),1
same,"Abdominal pain (TEAE), n patients",[1]; 2–28 mg US cohort (n = 10),0
same,"Back pain (TEAE), n patients",[1]; 2–28 mg US cohort (n = 10),5
same,"Blood creatinine increased (TEAE), n patients",[1]; 2–28 mg US cohort (n = 10),0
same,"Constipation (TEAE), n patients",[1]; 2–28 mg US cohort (n = 10),3
same,"Cough (TEAE), n patients",[1]; 2–28 mg US cohort (n = 10),2
same,"Decreased appetite (TEAE), n patients",[1]; 2–28 mg US cohort (n = 10),3
same,"Dehydration (TEAE), n patients",[1]; 2–28 mg US cohort (n = 10),0
same,"Diarrhoea (TEAE), n patients",[1]; 2–28 mg US cohort (n = 10),5
same,"Dry mouth (TEAE), n patients",[1]; 2–28 mg US cohort (n = 10),3
same,"Dysgeusia (TEAE), n patients",[1]; 2–28 mg US cohort (n = 10),0
same,"Dyspnea (TEAE), n patients",[1]; 2–28 mg US cohort (n = 10),2
same,"Edema (TEAE), n patients",[1]; 2–28 mg US cohort (n = 10),2
same,"Fatigue (TEAE), n patients",[1]; 2–28 mg US cohort (n = 10),7
same,"Fatigue ≥G3, n patients",[1]; 2–28 mg US cohort (n = 10),2
same,"Hyperglycaemia (TEAE), n patients",[1]; 2–28 mg US cohort (n = 10),0
same,"Nausea (TEAE), n patients",[1]; 2–28 mg US cohort (n = 10),6
same,"Pyrexia (TEAE), n patients",[1]; 2–28 mg US cohort (n = 10),1
same,"Rash (TEAE), n patients",[1]; 2–28 mg US cohort (n = 10),2
same,"Stomatitis (TEAE), n patients",[1]; 2–28 mg US cohort (n = 10),1
same,"Vomiting (TEAE), n patients",[1]; 2–28 mg US cohort (n = 10),4
same,"Lung infection/ pneumonia (TEAE), n patients","[1]; 2–28 mg US cohort (n = 10), cell marks G3","1, G3"
same,"AST increased (TEAE), n patients",[1]; 48–80 mg US cohort (n = 11),1
same,"Abdominal pain (TEAE), n patients",[1]; 48–80 mg US cohort (n = 11),1
same,"Back pain (TEAE), n patients",[1]; 48–80 mg US cohort (n = 11),1
same,"Blood creatinine increased (TEAE), n patients",[1]; 48–80 mg US cohort (n = 11),0
same,"Constipation (TEAE), n patients",[1]; 48–80 mg US cohort (n = 11),0
same,"Cough (TEAE), n patients",[1]; 48–80 mg US cohort (n = 11),3
same,"Decreased appetite (TEAE), n patients",[1]; 48–80 mg US cohort (n = 11),2
same,"Diarrhoea (TEAE), n patients",[1]; 48–80 mg US cohort (n = 11),4
same,"Dry mouth (TEAE), n patients",[1]; 48–80 mg US cohort (n = 11),3
same,"Dysgeusia (TEAE), n patients",[1]; 48–80 mg US cohort (n = 11),2
same,"Dyspnea (TEAE), n patients",[1]; 48–80 mg US cohort (n = 11),1
same,"Edema (TEAE), n patients",[1]; 48–80 mg US cohort (n = 11),1
same,"Fatigue (TEAE), n patients",[1]; 48–80 mg US cohort (n = 11),5
same,"Fatigue ≥G3, n patients",[1]; 48–80 mg US cohort (n = 11),1
same,"Hyperglycaemia (TEAE), n patients",[1]; 48–80 mg US cohort (n = 11),2
same,"Lung infection/ pneumonia (TEAE), n patients",[1]; 48–80 mg US cohort (n = 11),0
same,"Nausea (TEAE), n patients",[1]; 48–80 mg US cohort (n = 11),6
same,"Pyrexia (TEAE), n patients",[1]; 48–80 mg US cohort (n = 11),2
same,"Rash (TEAE), n patients",[1]; 48–80 mg US cohort (n = 11),4
same,"Rash G3, n patients",[1]; 48–80 mg US cohort (n = 11),1
same,"Stomatitis (TEAE), n patients",[1]; 48–80 mg US cohort (n = 11),3
same,"Vomiting (TEAE), n patients",[1]; 48–80 mg US cohort (n = 11),3
same,"Dehydration (TEAE), n patients","[1]; 48–80 mg US cohort (n = 11), cell marks G3","1, G3"
same,MTD,[1]; US study,240 mg
same,Grade 3 DLT,"[1]; US study, 48 mg",rash
same,Grade 3 DLT,"[1]; US study, 240 mg",stomatitis; also recorded: fatigue and dehydration
same,Patients with DLT,"[1]; US study, of 34 DLT-evaluable patients",4
same,Hyperglycaemia (on-target effect),glucose,observed as early as 4 h after dosing
